Legend:
[1] = system: p38 MAP kinase; test: Phosphorylation of p38 MAP kinase in PMA-treated THP-1 cells, Western blotting; format: cell-based, human
Procedure: Parental, mock, DDR1a- or DDR1b-overexpressing THP-1 cells were plated at 5×10^6/ml on uncoated tissue culture plates and stimulated with PMA (10 nM) for 24 hours, and then starved in RMPI 1640 without FCS for 10 hours. Subsequently cells were washed three times with PBS, and then incubated in the presence of 50 μg/ml collagen type I for various times.
Ten million cells were lysed on ice for 20 minutes in a buffer containing 50 mM NaCl, 20 mM Tris-HCl, 50 mM sodium fluoride, 30 mM Na4P2O7, 5 mM EGTA, 3 mM sodium orthovanadate, 1% Triton X-100, 1 mg/ml leupeptin, 1 mM PMSF, 1 mg/ml aprotinin, 1 mg/ml pepstatinA and 100 μM sodium orthovanadate treated with H2O2. A lysis buffer containing 150 mM NaCl, 50 mM HEPES, 1% Triton-X 10% glycerol, 1 mM sodium fluoride, 1 mM EDTA, 2 mM sodium orthovanadate, 1 mg/ml leupeptin, 1 mM PMSF, 1 mg/ml aprotinin, 1 mg/ml pepstatinA and 100 μM sodium orthovanadate treated with H2O2, was also used for immunoprecipitation with anti-Shc Ab. The lysates were spun in a microcentrifuge for 20 minutes and the supernatants were collected. […]
Eluted proteins were analyzed on 8% polyacrylamide gels by SDS-PAGE and transferred electrophoretically to nitrocellulose membranes at 150 mA for 1 hour by a semi-dry system. […] To detect phosphorylated or nonphosphorylated p38 MAP kinase or ATF-2, 20 μl of cell lysates were directly mixed with 20 μl of sample buffer and then analyzed.
Downstream signaling molecules that may play a role in the up-regulation of HLA-DR in collagen-activated PMA-treated DDR1b-overexpressing cells were identified in the following manner. […] Phosphorylation of p38 MAP kinase was first detected 30 minutes after collagen activation of DDR1b-overexpressing cells and the level of phosphorylation increased thereafter. […] Phosphorylation of p38 MAP kinase was not detected in DDR1a-overexpressing cells up to 120 minutes. […] Phosphorylation of other members of the MAP kinase family, ERK1, ERK2, and JNK could not be detected in collagen-activated PMA-treated DDR1b-overexpressing cells. […]

[2] = system: GM-macrophages; test: HLA-DR expression on GM-macrophages; format: cell-based, human; details: pretreatment of 5-day GM-macrophages, 30 minutes
Procedure: The leukocyte-rich preparation was overlaid on Accu-prep in 50 ml tubes and the tubes were centrifuged at 800×g for 20 minutes at room temperature. PBMC fractions were collected, washed once with PBS at room temperature and twice with complete medium at 4° C. and resuspended in the same medium. Monocytes were further purified by using iso-osmotic Percoll gradient. At this stage, the purity of monocytes was higher than 90%. The cells (5×10^5/ml) were allowed to adhere to the surface of 6-well plates. After a 5-hour incubation at 37° C., nonadherent cells were removed and adherent cells were induced to differentiate into macrophages by incubation in the presence of GM-CSF (50 ng/ml) for 5 to 7 days to produce GM-CSF-induced macrophages (GM-macrophages). Five-day GM-macrophages were incubated for additional 2 days with GM-CSF in the presence of an agonistic anti-human DDR1 monoclonal mouse against the extracellular domain of DDR1 (IgM 513). To measure the effect of SB203580, 5-day GM-macrophages were pretreated with SB203580, for 30 minutes.

Molecule | phosphorylation of p38 MAP kinase ([1]; DDR1a-overexpressing cells, up to 120 minutes) | time phosphorylation of p38 MAP kinase first detected ([1]; DDR1b-overexpressing cells) [min] | agonistic antibody-induced increase of HLA-DR-positive cells [2]
collagen | not detected | 30 | –
C[S+]([O-])c1ccc(-c2nc(-c3ccncc3)c(-c3ccc(F)cc3)[nH]2)cc1 (stereo not drawn) [SB203580] | – | – | completely inhibited

From patent publication US7855076B2, “Use of discoidin domain receptor 1 (DDR1) and agents that affect the DDR1/collagen pathway” (The United States of America as represented by the …, priority 2002, dated 2010)
